Laboratory results published in patent US20060217440A1, “Porcess for production of 2-cyano-3-hydroxy-n-(4-trifluoromethylphenyl)hept-2-en-6-ynamide and process for production of polymorphs thereof” (priority 2003, published 2006).

Assay: Stability of the crystal forms based on DSC endothermic test
Assay type: physicochemical
Conditions: analysis based on measurement results of a DSC endothermic test; rank order among polymorphs of compound (I)
From the text: FIGS. 1, 4 and 7 show the IR (KBr) spectrum, DSC endothermic curve and X-ray diffraction pattern of the crystals, respectively.
FIGS. 2, 5 and 8 show the IR (KBr) spectrum, DSC endothermic curve and X-ray diffraction pattern of the crystals, respectively.
FIGS. 3, 6 and 9 show the […]

## C#CCC/C(O)=C(\C#N)C(=O)Nc1ccc(C(F)(F)F)cc1 [B-form crystals, 2-cyano-3-hydroxy-N-(4-trifluoromethylphenyl) hept-2-en-6-ynamide]
  stability order of the crystal forms: B-form crystals>C-form crystals>A-form crystals
